Data from patent US8378071B2, “Peptide epitopes of VEGFR-2/KDR that inhibit angiogenesis” (The United States of America as Represented by the …, priority 2005, dated 2013).

Key:
[1] = molecular target: T1, HLA-A2 (Homo sapiens, UniProt P04439, D140Y/D185E/D98H/E176V/E277Q/G131W/G231S/I119V/I121R/I166T/I218V/L300P/L318F/N151K/N90K/P208A/P217A/Q86G/Q94H/R138H/R169H/T345S); experiment: T2 binding assay (HLA-A2 stabilization); conditions: T2 cells, FIG. 7
T1 construct: endogenous in cells; host or cells: T2 cells
From the text: The ability of any of the above described peptides to bind MHC Class I can be confirmed using assays available in the art. For example, the ability of a murine VEGFR-2/KDR peptide to bind a mouse Class I molecule, such as H-2 Db can be determined in a MHC stabilization assay employing RMA-S cells as described in Lyman et al., J. Virol. 76:3125-3134, 2002, and in the EXAMPLES Section below. The ability of a human VEGFR-2/KDR peptide to bind a human Class I molecule, such as an HLA-A2 protein can be evaluated in a T2 MHC binding assay as described by Cerundolo et al., Nature 342:449-452, 1990. In brief, T2 cells are cultured in RPMI1640 with 10% FBS, and grown in 5% CO2 at 37° C. […] The level of stabilized HLA-A2 on the surface of the T2 cells is detected using the pan HLA class I monoclonal antibody W6/32 (European Collection of Animal Cell Cultures (ECACC), Porton Down, Salisbury) that recognizes stabilized HLA-A2 complexes. The primary monoclonal antibody can be labeled or can be detected using, e.g., a labeled goat antimouse IgG (Cambridge Biosciences, Cambridge, United Kingdom) as the second layer. Samples are fixed in 1% paraformaldehyde in PBS prior to analysis and analyzed on a Becton Dickinson FACSCAN®. […]

[2] = tested on: H5V endothelial cells; experiment: 4-hour 51Cr release assay, CTLs from immunized mice, endothelial cell targets; format: cell-based, mouse; conditions: for Percentage of lyses by induced CTLs, control: control for H5V; for Percentage of lyses by induced CTLs, control / Percentage of lyses by induced CTLs: E:T ratio 50:1; for Lysis of H5V cells and peptide-pulsed EL4 by induced CTLs (in words): not bEND3 or EL4 alone, FIG. 4; for Percentage of lyses by induced CTLs: targets H5V
Procedure: (§1) FIGS. 4A-D are line graphs illustrating the results of standard 4 hr ^51Cr release test. Three weeks after immunization, spleen cells were prepared from immunized mice (4-5 mice per group) and restimulated with vaccinated peptides in a 24-well plate in the presence of RPMI 1640 (Invitrogen) with 10% FCS. 10% T-stim was added 48 hours later into the culture media and the cells were incubated for 5 days at 37° C. The CTL activity was tested in a 4-hour ^51Cr release assay. Target cells include VEGFR-2/KDR+H5V (H-2d) and bEND3 (H-2b) endothelial cells, VEGFR-2/KDR-EL4 cells pulsed with peptides or EL4 alone. The percentage of specific lysis was calculated using the formula: (experimental release−spontaneous release)/(maximum release−spontaneous release)×100. Upper panel: effector cells from mice immunized with KDR2, Lower panel: effectors from KDR3 immunized mice.
(§2) Chromium (^51Cr) Release Assays were used to determine whether T cells identified as binding to VEGFR-2/KDR specifically targeted endothelial cells. Mice were vaccinated twice with 5 μg GM-CSF, 20 μg anti-CD40 and 100 μg peptide per mice. Briefly, spleen cells were prepared from immunized mice (4-5 mice per group) and restimulated with the vaccinated peptides in 24-well plates in RPMI 1640 (Invitrogen) with 10% FCS. Forty-eight hours later, 10% T-stim (BD Bioscience) was added into the culture media. CTL activity was tested in a 4-hour ^51Cr release assay 5 days later. VEGFR-2/KDR+syngeneic H5V (H-2d), allogeneic bEND3 (H-2b) endothelial cells and VEGFR-2/KDR syngeneic EL4 cells pulsed with peptides or EL4 alone served as target cells. The percentage cytotoxicity was calculated using the formula: (experimental release−spontaneous release)/(maximum release−spontaneous release)×100.

[3] = tested on: IFN-γ secreting spleen cells / DLN cells; experiment: IFN-γ Elispot assay on splenocytes or draining lymph node cells of peptide-vaccinated mice; format: in vivo, C57BL/6 mice; conditions: for IFN-γ secreting cells per million fresh DLN cells: stimulated with syngeneic VEGFR-2/KDR expressing H5V cells, FIG. 2C
From the text: FIGS. 2A-C are bar graphs representing the results of IFN-Eli spot assays. Four groups of mice (5 mice per group) were vaccinated with different peptides (KDR1, KDR2, KDR3). Mice were sacrificed, spleen or drained lymph nodes (DLN) cells prepared as described in methods section served as effectors. Syngeneic EL4 cells (3,000 rads) pulsed with peptides or H5V cells after treated with MMC served as stimulators. Irradiated EL4 without peptide or MMC treated allogeneic bEND3 cells as control. Dot bar: EL4 pulsed with irrelevant peptide as negative control; Solid bar: EL4 pulsed with KDR2 or KDR3 respectively; Open bar: EL4 without any peptide; A. Results of fresh spleen cells; B. Results of spleen cells after 1 week restimulation in vitro; C. Cells from fresh drained lymph nodes stimulated with H5V or bEND3 cells.
Mice were immunized with selected peptide, together with murine GM-CSF and anti-mouse CD40 as adjuvants. An emulsion containing 50 μl Incomplete Freud's Adjuvants (IFA, Sigma) with or without 100 […] of peptide and 5 μg murine GM-CSF (Pepro Tech), 20 μg anti-murine CD40 monoclonal antibody (Southern Biotech, Clone number 1C10) was prepared in a final volume of 100 μl. Subcutaneous injections were performed on the tails of the mice with 1 ml syringes and 30 gauge needles. For the Matrigel Plug Assay, two boosts were injected at 4 week intervals.
IFN-γ Elispots assay was performed on draining lymph nodes cells (DLN) or splenocytes collected 2 weeks after vaccination to evaluate the antigen specific immune response against the VEGFR-2/KDR peptides. Elispot plates (Millipore, Bedford, Mass.) were coated with 8 μg of anti-gamma interferon (IFN-γ) antibody per ml in sterile phosphate-buffered saline (PBS) overnight at 4° C. Plates were washed and then blocked with RPMI 1640 with 10% FBS. Fresh splenocytes or cells after 1 week in vitro restimulation were used as effectors. 1 or 5×10^5 effector cells were co-cultured overnight with or without 2×10^5 irradiated (3,000 rads) EL4 cells in 200 μl media at 37° C., 5% CO2 in the presence of appropriate concentration of peptide. When H5V and bEND3 cells in stead of EL4 were used as stimulators, they were treated with 0.1 mg/ml mitomycin C (Sigma, St. Louis) for half an hour at 37° C., then wash three times with PBS. 5×10^4H5V or bEND3 cells were co-cultured overnight with 2×10^5 draining lymph nodes cells. Spots were developed as previously described using biotin-conjugated anti-cytokine antibodies (Endogen, Boston, Mass.) and streptavidin-horseradish peroxidase in 1% BSA-PBS.

[4] = tested on: EL4 cells pulsed with peptides; experiment: 4-hour 51Cr release assay, CTLs from immunized mice, EL4 targets; format: cell-based, mouse; conditions: E:T ratio 50:1; for Percentage of lyses by induced CTLs, control: control for EL4 pulsed with peptide; for Percentage of lyses by induced CTLs: targets EL4 pulsed with the vaccinated peptide
Procedure: as §1, §2

[5] = molecular target: T2, H-2 Db (Mus musculus, UniProt P01899); experiment: RMA-S binding assay (MHC stabilization, flow cytometry); conditions: for Concentration at FI=0.5: RMA-S cells loaded 16 to 18 h at 37° C, FI = fluorescence with peptide/without peptide - 1; for Binding to H-2 Db (in words): RMA-S cells, FIG. 1
T2 construct: enhance surface expression of the respective MHC class I molecules on these cells by stabilizing the peptide-MHC complex; endogenous in cells; host or cells: RMA-S (H-2b) cells
T2 sequence (P01899 25-362): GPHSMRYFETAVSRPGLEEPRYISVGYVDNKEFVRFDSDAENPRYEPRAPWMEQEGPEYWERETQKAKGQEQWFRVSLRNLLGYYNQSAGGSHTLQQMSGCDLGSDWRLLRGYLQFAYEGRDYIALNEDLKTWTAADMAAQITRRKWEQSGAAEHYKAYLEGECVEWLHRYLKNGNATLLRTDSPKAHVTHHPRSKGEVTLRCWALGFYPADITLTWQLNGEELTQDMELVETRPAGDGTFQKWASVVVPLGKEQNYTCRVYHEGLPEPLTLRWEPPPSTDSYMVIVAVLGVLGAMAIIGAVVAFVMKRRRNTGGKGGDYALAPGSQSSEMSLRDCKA
T2 sequence (P01887 21-119 partner): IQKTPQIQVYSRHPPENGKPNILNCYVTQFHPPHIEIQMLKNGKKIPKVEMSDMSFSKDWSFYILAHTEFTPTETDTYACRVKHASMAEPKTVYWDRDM
Procedure: FIG. 1 is a line graph illustrating results of an RMA-S binding assay. KDR2 and KDR3 bind efficiently to H-2 Db molecules. RMA-S cells were loaded with various peptides for 16 to 18 h at 37° C. Levels of surface class I molecules were assessed by flow cytometric analysis using mouse monoclonal antibodies specific for H-2 Db. FI=Fluoresce measurement after peptides stimulation/Fluoresce measurement without peptide-1. : KDR1, ▴: KDR2, : KDR3, ◯: wild type P53 264-272, : HPV 16 E7 49-57. HPV E7 49-57 and Human P53 264-272 serve as positive and negative control respectively. The results shown here are representative of three separate experiments.
To test the binding affinity of these peptides to H-2 Db, an RMA-S binding experiment was performed, and the FI value in the assay was measured. […] The RMA-Binding assays were performed as previously described (Lyman et al., J. Virol. 76:3125-3134, 2002). Briefly, synthetic peptides were dissolved in dimethyl sulfoxide before dilution. For MHC-binding assays, RMA-S cells were loaded with various peptides for 16 to 18 h at 37° C. Levels of surface class I molecules were assessed by flow cytometric analysis (FACScan; Becton Dickinson) using mouse monoclonal antibodies specific for H-2 Db (Southern Biotech, clone No. 28-14-8). FI=Fluorescence after peptides stimulation/Fluorescence without peptide-1.
Previous data have shown that the HPV16E7 49-57 can bind to H-2 Db molecules efficiently and induce a strong CTL response in B6 mice (Feltkamp et al., Eur. J. Immunol. 23:2242-2249, 1993). HPV16E7 49-57 peptide was used as a positive control; and the human P53 264-272, known to bind HLA-A2 but not H-2 Db, was used as a negative control (FIG. 1).

| Substance | Percentage of lyses by induced CTLs, control [2] [%] | Lysis of H5V cells and peptide-pulsed EL4 by induced CTLs (in words) [2] | Percentage of lyses by induced CTLs [2] [%] | IFN-γ secreting fresh spleen cells relative to irrelevant HPV E7 peptide / background ([3]; FIG. 2A) | IFN-γ secreting cells per million fresh DLN cells [3] [per million cells] | Percentage of lyses by induced CTLs, control [4] | Percentage of lyses by induced CTLs [4] [%] | Concentration at FI=0.5 [5] | Binding to H-2 Db (in words) [5] | further results |
| --- | --- | --- | --- | --- | --- | --- | --- | --- | --- | --- |
| AMFFWLLLV [KDR775, human VEGFR-2/KDR peptide] |  |  |  |  |  |  |  |  |  | Affinity for MHC molecules relative to the other peptides (in words) [1]: substantially higher affinity |
| FSNSTNDILI [KDR3, murine VEGFR-2/KDR peptide, location 615-624] | 3 | can lyse | 13 | about 6 times | 161 | 0% | 21 | about 3 μM | bind well | Number of IFN-γ secreting fresh spleen cells after pulsing with peptide ([3]; fresh spleen cells of vaccinated mice, FIG. 2A): 176 |
| HPV16E7 49-57: Human Papilloma Virus 16E7 49-57 peptide, known H-2 Db binder, positive control (RAHYNIVTF) [reference compound] |  |  |  |  |  |  |  | about 12.5 μM |  |  |
| LLSEKNVVKI [KDR1, murine VEGFR-2/KDR peptide, location 1033-1042] |  |  |  |  |  |  |  |  |  | IFN-γ secreting cells relative to background after 1 week in vitro culture with the vaccinated peptide ([3]; spleen cells restimulated 1 week in vitro, FIG. 2B): remained negative |
| P53 264-272: human P53 264-272 peptide, binds HLA-A2 but not H-2 Db, negative control [reference compound] |  |  |  |  |  |  |  | > 200 µM | does not bind |  |
| VILTNPISM [KDR2, murine VEGFR-2/KDR peptide, location 400-408] | ~1 | can lyse | 28 | about 50 times | 360 | about 8% | 25 | about 24 μM | bind well |  |
